Test results taken from patent US20120295802A1, “METHODS AND COMPOSITIONS FOR CANCER TREATMENT RELATING TO BRCA1 BRCT DOMAIN RECOGNITION OF PHOSPHORYLATED BACH1” (priority 2004, published 2012).
“Also recorded” adds a separate entry of the source.

Key:
[1] = test system: optimal tandem BRCT domain-interacting phosphopeptide, YDIpSQVFPF, or its non-phosphorylated counterpart; experiment: Peptide binding: in vitro translated [35S] BRCA1 BRCT constructs on bead-immobilized phosphorylated or non-phosphorylated peptide; details: in vitro transcribed and translated protein; for binding to phosphorylated peptide: bead-immobilized biotinylated phosphopeptide, SDS-PAGE and autoradiography; for binding to non-phosphorylated peptide: bead-immobilized biotinylated non-phosphorylated peptide
Method: An optimal phosphopeptide for binding the BRCA1 BRCTs was determined by oriented peptide library screening as described previously. This peptide was synthesized in both its phosphorylated and non-phosphorylated form with a biotin group at the N-terminus using N-α-FMOC-protected amino acids and standard BOP/HOBt coupling chemistry. These peptides were conjugated to streptavidin coated beads (Sigma-Aldrich). The wild-type and mutant BRCA1 BRCT domain-containing constructs (residues 1313-1863) were transcribed and translated in vitro in the presence of [^35S]-methionine using the TNT kit (Promega). The bead-immobilized peptides (10 μL of beads) were added to 10 μL of the in vitro translated [^35S]-labeled protein pool in 150 μL binding buffer (50 mM Tris-HCl (pH7.6), 150 mM NaCl, 0.5% NP-40, 1 mM EDTA, 2 mM DTT, 8 μg/mL pepstatin, 8 μg mL^−1 aprotinin, 8 μg mL^−1 leupeptin, 800 μM Na3VO4, 25 mM NaF). After incubation at 4° C. for 3 hours, the beads were washed three times with 200 μL of binding buffer prior to analysis by SDS-PAGE (12.5% (w/v)) and autoradiography.

cholinesterases = details: by cholinesterases; cited from earlier work
endogenous BACH1 = molecular target: T1, endogenous BACH1 (Homo sapiens, UniProt Q9BX63); experiment: Co-immunoprecipitation of BRCA1 BRCTs and BACH1 in transfected U2OS cells; type: cell-based; details: U2OS cells transfected with myc-tagged BRCA1 construct; anti-myc immunoprecipitation, anti-BACH1 blot
T1 construct: endogenous in cells; host or cells: U2OS cells (BACH1 endogenous; the BRCA1 fragment transfected from pcDNA3 with FuGene6)
T1 sequence (Q9BX63 1-1249): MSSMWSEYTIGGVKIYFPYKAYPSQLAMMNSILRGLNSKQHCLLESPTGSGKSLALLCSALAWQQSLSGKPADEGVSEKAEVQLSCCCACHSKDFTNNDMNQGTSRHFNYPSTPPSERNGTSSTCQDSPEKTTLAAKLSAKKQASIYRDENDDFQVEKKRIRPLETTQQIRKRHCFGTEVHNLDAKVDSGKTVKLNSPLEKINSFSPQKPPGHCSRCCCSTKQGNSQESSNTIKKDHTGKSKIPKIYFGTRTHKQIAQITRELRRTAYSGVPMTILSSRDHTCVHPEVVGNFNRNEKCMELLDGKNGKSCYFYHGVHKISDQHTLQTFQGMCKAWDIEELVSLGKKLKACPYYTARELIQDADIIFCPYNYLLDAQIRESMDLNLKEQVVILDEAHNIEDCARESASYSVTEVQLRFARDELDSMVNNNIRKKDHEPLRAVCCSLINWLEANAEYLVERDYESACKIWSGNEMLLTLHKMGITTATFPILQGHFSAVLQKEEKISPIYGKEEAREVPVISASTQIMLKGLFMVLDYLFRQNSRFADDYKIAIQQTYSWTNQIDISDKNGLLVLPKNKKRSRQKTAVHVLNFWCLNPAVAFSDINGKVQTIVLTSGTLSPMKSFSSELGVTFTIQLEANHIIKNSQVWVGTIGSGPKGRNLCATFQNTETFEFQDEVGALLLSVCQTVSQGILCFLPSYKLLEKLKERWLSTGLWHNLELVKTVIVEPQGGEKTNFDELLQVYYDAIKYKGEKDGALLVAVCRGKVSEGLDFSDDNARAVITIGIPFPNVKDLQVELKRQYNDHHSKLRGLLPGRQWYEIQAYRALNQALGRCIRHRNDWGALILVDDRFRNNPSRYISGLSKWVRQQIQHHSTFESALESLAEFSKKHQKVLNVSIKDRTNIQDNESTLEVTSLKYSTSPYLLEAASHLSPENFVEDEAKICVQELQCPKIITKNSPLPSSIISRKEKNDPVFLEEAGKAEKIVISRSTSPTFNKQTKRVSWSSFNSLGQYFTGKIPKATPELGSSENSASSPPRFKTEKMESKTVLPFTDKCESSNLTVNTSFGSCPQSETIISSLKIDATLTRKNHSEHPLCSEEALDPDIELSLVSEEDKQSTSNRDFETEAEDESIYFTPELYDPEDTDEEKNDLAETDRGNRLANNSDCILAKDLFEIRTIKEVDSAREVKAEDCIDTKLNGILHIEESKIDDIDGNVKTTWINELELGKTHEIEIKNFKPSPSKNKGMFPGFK
Method: U2OS cells were grown to 50% confluency in 100 cm^2 dishes and transfected with the myc-tagged wild-type or mutant BRCA1 BRCT constructs (residues 1313-1863) (SEQ ID NO.: 6) using FuGene6 transfection reagent (Roche) according to manufacturer's protocol. Cells were collected 30 hrs following transfection, lysed in lysis buffer (50 mM Tris-HCl (pH7.6), 150 mM NaCl, 1.0% NP-40, 5 mM EDTA, 2 mM DTT, 8 μg/mL AEBSF, 8 μg mL^−1 aprotinin, 8 μg mL^−1 leupeptin, 2 mM Na3VO4, 10 mM NaF and the phosphatase inhibitors microcystin and okadaic acid). Lysates containing equal amounts of protein (3 mg) was incubated with 3 μL of a mouse anti-myc antibody (Cell Signaling) for 2 hr at 4° C. and then 10 μL of protein G-sepharose beads (Sigma-Aldrich) were added and samples incubated for an additional 2 hr at 4° C. Beads were washed four times with lysis buffer, bound proteins eluted in SDS-PAGE sample buffer, analysed on 6% polyacrylamide gels, transferred to PVDF membrane, and detected by blotting with rabbit anti-BACH1 antibody. A portion of the lysates were also run and blotted with the anti-BACH1 antibody and the anti-myc antibody to further ensure equal protein loading.

[2] = molecular target: T2, BACH1 phosphopeptide spot array (Homo sapiens); experiment: Peptide filter array (spot blot) with GST-BRCA1 BRCTs; type: binding; details: 0.25 μM GST-BRCA1 BRCTs M1775R, 10 times the protein of wild type
T2 construct: made in house; host or cells: bacteria (pGEX clone, IPTG induction)
Method: An ABIMED peptide arrayer with a computer controlled Gilson diluter and liquid handling robot was used to synthesize peptides onto an amino-PEG cellulose membrane using N-α-FMOC-protected amino acids and DIC/HOBT coupling chemistry. The membranes were blocked in 5% (w/v) milk in Tris-buffered saline containing 0.1% (v/v) Tween-20 (TBS-T) for 1 hr at room temperature, incubated with 0.025 μM GST-BRCA1 BRCTs or 0.25 μM GST-BRCA1 BRCTs M1775R (residues 1633-1863) in 5% (w/v) milk, 50 mM Tris-HCl (pH 7.6), 150 mM NaCl, 2 mM EDTA, 2 mM DTT for 1 hr at room temperature and washed four times with TBS-T. The membranes were then incubated with anti-GST conjugated HRP (Amersham) in 5% (w/v) milk/TBS-T for 1 hr at room temperature, washed five times with TBS-T, and binding analysed by ECL (Perkin-Elmer).

U2OS cells = experiment: Immunofluorescence: localization and nuclear foci formation of myc-tagged BRCA1 tandem BRCT domains; type: cell-based; details: for co-localization with anti-pSer/pThr-Gln epitope antibody staining / nuclear foci formation after DNA damage: U2OS cells, 10 Gy γ-irradiation; for co-localization with anti-pSer/pThr-Gln epitope antibody staining: 2 hrs; for nuclear foci formation after DNA damage: 2 hrs later permeabilized, fixed and stained
Method: U2OS cells were seeded onto 18 mm^2 coverslips and transfected with the BRCA1 BRCT construct (residues 1313-1863) and various mutants using FuGene6 transfection reagent (Roche) according to manufacturer's protocol. Thirty hours following transfection, the cells were either treated with 10 Gy of ionizing radiation or mock irradiated and allowed to recover for 120 minutes. Cells were fixed in 3% (v/v) paraformaldehyde/2% (w/v) sucrose for 15 min at RT and permeabilized with a 0.5% (v/v) Triton X-100 solution containing 20 mM Tris-HCl (pH 7.8), 75 mM NaCl, 300 mM sucrose, and 3 mM MgCl2 for 15 min at RT. When necessary, proteins were extracted after IR treatment as described previously. In brief, cells were incubated with extraction buffer (10 mM PIPES pH6.8, 100 mM NaCl, 300 mM sucrose, 3 mM MgCl2, 1 mM EGTA, 0.5% (v/v) Triton X-100) for 5 minutes on ice followed by incubation with extraction stripping buffer (10 mM Tris-HCl pH 7.4, 10 mM NaCl, 3 mM MgCl2, 0.5% (v/v) Triton X-100) for 5 minutes on ice followed by successive washes in ice cold PBS. Slides were fixed as above, stained with primary antibodies at 37° C. for 20 min, then stained with a anti-mouse or anti-rabbit secondary antibody for 20 min (Molecular Probes) at 37° C. Primary antibodies used were mouse anti-myc (Cell Signaling) and rabbit anti-(pSer/pThr)Gln (Cell Signaling). Images were collected on a Axioplan2 microscope (Carl Zeiss) and processed using OpenLab software (Improvision).

| Molecule | binding to phosphorylated peptide [1] | co-localization with anti-pSer/pThr-Gln epitope antibody staining (U2OS cells) | nuclear foci formation after DNA damage (U2OS cells) | further results |
| --- | --- | --- | --- | --- |
| C[C@H]1C[C@@H]2[C@H]([C@@H](O)C[C@@]3(C)[C@H]2CC[C@]3(O)C(=O)COC(=O)CCC(=O)[O-])[C@@]2(C)C=CC(=O)C=C12.[Na+] [Methylprednisolone sodium succinate ester] |  |  |  | hydrolysis in vivo to free methylprednisolone (cholinesterases): rapidly and extensively hydrolysed |
| G1738E: cancer-linked BRCA1 tandem BRCT domain mutant (SEQ ID NO.: 17) | complete loss of phosphopeptide binding |  |  |  |
| R1699Q: BRCA1 tandem BRCT domain mutant detected in breast cancer patients (SEQ ID NO.: 14) | retained a small degree of binding |  |  | binding to non-phosphorylated peptide [1]: weak phospho-independent binding; also recorded: bound to both phosphorylated and non-phosphorylated peptides |
| Wild-type BRCA1 tandem BRCT domains: myc-tagged human BRCA1 BRCT construct, residues 1313-1863, with SV40 nuclear localization sequence; GST fusion of residues 1633-1863 for the filter array | clearly bind | largely co-localized | demonstrated sharp punctate nuclear foci | binding to non-phosphorylated peptide [1]: not non-phosphorylated peptides; in vivo interaction with full-length endogenous BACH1 (endogenous BACH1): easily detected |
| Y1853X: BRCA1 BRCT mutant which truncates the last 11 residues (SEQ ID NO.: 21) | complete loss of phosphopeptide binding |  |  |  |

The next lines start with results.

| binding to phosphorylated peptide [1] | Molecule | co-localization with anti-pSer/pThr-Gln epitope antibody staining (U2OS cells) | nuclear foci formation after DNA damage (U2OS cells) | further results |
| --- | --- | --- | --- | --- |
| complete loss of phosphopeptide binding | 5382InsC: BRCA1 frameshift mutation that results in a stop codon at position 1829 (SEQ ID NO.: 22) |  |  |  |
| complete loss of phosphopeptide binding | M1775R: cancer-associated BRCA1 tandem BRCT domain mutant (SEQ ID NO.: 10) | less co-localization with pSer/pThr-Gln staining foci than the wild-type protein | also formed punctate nuclear foci, although these were slightly reduced in number; also recorded: can still form nuclear foci after DNA damage | in vivo interaction with full-length endogenous BACH1 (endogenous BACH1): completely loses the ability to interact with wild-type BACH1; binding to BACH1 phosphopeptide in which the +3 Phe is mutated to Asp or Glu [2]: bind weakly; also recorded: binds weakly to phosphopeptides with altered motif specificity |
| complete loss of phosphopeptide binding | P1749R: cancer-linked BRCA1 tandem BRCT domain mutant (SEQ ID NO.: 18) |  |  |  |
| completely abolished the interaction | S1655A/K1702M: phosphopeptide-binding double mutant of BRCA1 tandem BRCT domains (SEQ ID NO.: 20) | completely failed to co-localize | only faint staining with a very fine granular pattern | nuclear foci, in words (U2OS cells; un-irradiated U2OS cells, Triton X-100 extracted prior to fixation): no foci were observed |
